The values that follow come from patent US7759373B2, “Large conductance calcium-activated K channel opener” (Mitsubishi Tanabe Pharma Corporation, priority 2001, dated 2010).

Structures are written as SMILES. Where only a bound is given, the exact number is not on record here.

Test [1] concerns isolated rabbit urinary bladder. The test can be described thus: Relaxation effect on potassium-induced contraction of isolated rabbit urinary bladder. In kind it is cell-based. Conditions: Oryctolagus cuniculus; 50% relaxation concentration; high-K+ (30 mM) pre-contracted rabbit bladder strips; relaxation as percentage of the maximum produced by 0.1 mM papaverine; read-out: EC50 value range. In outline: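 Mucosa-free longitudinal bladder strips from male NZW rabbits, held at 37 °C in Krebs solution gassed with 95% O2/5% CO2, were precontracted with 30 mM K+. Compounds were added cumulatively (10^−8–10^−4 M), with isometric relaxation expressed relative to 0.1 mM papaverine maximum. EC50 was derived and reported as rank ranges.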

Test [2] relates to rhythmic bladder contractions induced by substance P. The test can be described thus: Inhibitory effect on the rhythmic bladder contractions induced by substance P in anesthetized rats. In kind it is in vivo, rat. Conditions: time during which frequency of rhythmic contraction was completely inhibited, 0.25 mg/kg of the compound, substance P infusion. In outline: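 Urethane-anesthetized female Sprague-Dawley rats with rhythmic bladder contractions driven by i.v. substance P (0.33 μg/kg/min). Compound given i.v. in saline/0.5% Tween 80 once contractions stable 15 min; intravesical pressure monitored, duration of 100% inhibition ranked A ≥20, B ≥10, C <10 min.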

As to `CN(C)c1ncc(-c2nc(CC(=O)O)c(-c3ccc(Cl)cc3)o2)cn1` [Preparation Example 473], the EC50 – broadly, the concentration at which the effect is half-maximal – in test [1] lay within 500 to 1000 nM. Further, the “100% inhibition time range” value in test [2] was “A (A≧20>B≧10>C (minute))”.
For `Cc1csc(-c2nc(CC(=O)O)c(-c3ccc(Cl)s3)o2)c1` [Preparation Example 478], the concentration giving a half-maximal response (EC50) in test [1] is not above 500 nM. The “100% inhibition time range” value in test [2] was “B (A≧20>B≧10>C (minute))”.
Consider `O=C(O)Cc1nc(-c2cc3c(s2)CCC3)oc1-c1ccc(Cl)s1` [Preparation Example 479], for which the 50% effective concentration (EC50) in test [1] is not above 500 nM. For the same molecule, in test [2], the “100% inhibition time range” value is “C (A≧20>B≧10>C (minute))”.
In the case of `CCc1[nH]c(-c2ccsc2C(C)O)nc1-c1cccnc1.Cl.Cl` (centres unmarked) [Preparation Example 486, 2-[2-(1-hydroxyethyl)thiophen-3-yl]-5-ethyl-4-(3-pyridyl)-imidazole dihydrochloride], the EC50 in test [1] lay in the range of 1000 to 3000 nM. For the same molecule, the “100% inhibition time range” value in test [2] was “B (A≧20>B≧10>C (minute))”.
The like results for `O=C([O-])Cc1oc(-c2ccc(F)cc2)nc1-c1ccc(Cl)s1.[Na+]` [Preparation Example 487, 4-(5-chloro-thiophen-2-yl)-2-(4-fluorophenyl)oxazol-5-yl acetic acid sodium salt] were, in that order, 500 to 1000 nM and “C (A≧20>B≧10>C (minute))”.
Take `O=C(O)Cc1oc(-c2cc3ccccc3s2)nc1-c1ccc(Cl)s1` [Preparation Example 503]: in test [1], the EC50 fell in the range of 1000 to 3000 nM. The “100% inhibition time range” value in test [2] was “A (A≧20>B≧10>C (minute))”.
`CN(C)c1ccc(-c2nc(-c3ccc(Cl)s3)c(CC(=O)O)o2)cn1` [Preparation Example 504]: in test [1], the concentration for a half-maximal effect (EC50) was 1000 to 3000 nM. The “100% inhibition time range” value in test [2] is given as “C (A≧20>B≧10>C (minute))”.
As for `O=C(O)Cc1oc(-c2ccc(F)cc2)nc1-c1ccc(Cl)cc1` [Preparation Example 511], in test [1], the EC50 is not above 500 nM. Besides, the “100% inhibition time range” value in test [2] is “C (A≧20>B≧10>C (minute))”.
As for `CN(C)c1ncc(-c2nc(-c3ccc(Cl)s3)c(CC(=O)O)o2)cn1` [Preparation Example 512], in test [1], the concentration for a half-maximal effect (EC50) fell in the range of 500 to 1000 nM. For the same molecule, in test [2], the “100% inhibition time range” value is recorded as “B (A≧20>B≧10>C (minute))”.
With `CN(C)c1ccc(-c2nc(-c3ccc(Cl)cc3)c(CC(=O)O)o2)cn1` [Preparation Example 514], in test [1], the EC50 was 500 to 1000 nM. Besides, in test [2], the “100% inhibition time range” value is on record as “B (A≧20>B≧10>C (minute))”.
Take `COc1ccc(-c2nc(-c3ccc(Cl)cc3)c(CC(=O)O)o2)cc1` [Preparation Example 517]: the EC50 in test [1] was not above 500 nM. Also, the “100% inhibition time range” value in test [2] is listed as “C (A≧20>B≧10>C (minute))”.
With `O=C(O)Cc1nc(-c2ccc(F)cc2)oc1-c1ccc[nH]1` [Preparation Example 524], the concentration giving a half-maximal response (EC50) in test [1] lay within 1000 to 3000 nM. Moreover, in test [2], the “100% inhibition time range” value is “B (A≧20>B≧10>C (minute))”.
As to `CN(c1ccc(-c2nc(CC(=O)O)c(-c3ccc(Cl)s3)o2)cn1)C1CC1` [Preparation Example 531], the concentration giving a half-maximal response (EC50) in test [1] was 1000 to 3000 nM. The “100% inhibition time range” value in test [2] is reported as “C (A≧20>B≧10>C (minute))”.
For `CSc1ncc(-c2nc(-c3ccc(Cl)s3)c(CC(=O)O)s2)cn1` [Preparation Example 572] the same measures were 1000 to 3000 nM and “C (A≧20>B≧10>C (minute))”.
For the molecule `O=C(O)Cc1sc(-c2cc3ccccc3s2)nc1-c1ccc(Cl)cc1` [Preparation Example 574], the EC50 in test [1] is 1000 to 3000 nM. Besides, the “100% inhibition time range” value in test [2] is “B (A≧20>B≧10>C (minute))”.
For the molecule `COc1ccc(-c2nc(-c3ccc(Cl)cc3)c(CC(=O)O)s2)cc1` [Preparation Example 575], the EC50 in test [1] was not above 500 nM. The “100% inhibition time range” value in test [2] is recorded as “B (A≧20>B≧10>C (minute))”.
Take `CN(C)c1ccc(-c2nc(-c3ccc(Cl)cc3)c(CC(=O)O)s2)cn1` [Preparation Example 576]: the half-maximal effective concentration (EC50) in test [1] lay within 500 to 1000 nM. Moreover, the “100% inhibition time range” value in test [2] is listed as “A (A≧20>B≧10>C (minute))”.
Turning to `COc1ccc(-c2nc(-c3cccs3)c(CC(=O)O)s2)cc1` [Preparation Example 578], in test [1], the EC50 lay in the range of 500 to 1000 nM. In addition, the “100% inhibition time range” value in test [2] is “B (A≧20>B≧10>C (minute))”.
As for `CN(C)c1ccc(-c2nc(-c3cccs3)c(CC(=O)O)s2)cn1` [Preparation Example 579], the EC50 in test [1] was in the range of 500 to 1000 nM. Further, in test [2], the “100% inhibition time range” value is given as “C (A≧20>B≧10>C (minute))”.
`O=C(O)Cc1sc(-c2ccc(F)cc2)nc1-c1ccc(Cl)c(F)c1` [Preparation Example 584]: the EC50 in test [1] was in the range of 1000 to 3000 nM. Also, in test [2], the “100% inhibition time range” value is given as “A (A≧20>B≧10>C (minute))”.
Regarding `CCOc1ccc(-c2nc(-c3ccc(Cl)s3)c(CC(=O)O)s2)cn1` [Preparation Example 586], the EC50 in test [1] is not above 500 nM. In test [2], the “100% inhibition time range” value was “B (A≧20>B≧10>C (minute))”.
Consider `Cc1cc(-c2nc(-c3ccc(Cl)s3)c(CC(=O)O)s2)sc1C` [Preparation Example 587], for which the concentration giving a half-maximal response (EC50) in test [1] lay within 500 to 1000 nM. Besides, the “100% inhibition time range” value in test [2] is “A (A≧20>B≧10>C (minute))”.
On to `CSc1ccc(-c2nc(-c3ccc(Cl)s3)c(CC(=O)O)s2)cc1` [Preparation Example 590], for which, in test [1], the EC50 was not above 500 nM. Moreover, the “100% inhibition time range” value in test [2] was “B (A≧20>B≧10>C (minute))”.
For `O=C(O)Cc1sc(-c2ccc(F)cc2)nc1-c1ccsc1` [Preparation Example 594], the concentration giving a half-maximal response (EC50) in test [1] is not above 500 nM. Besides, in test [2], the “100% inhibition time range” value was “C (A≧20>B≧10>C (minute))”.
For `CN(C)c1ccc(-c2nc(-c3ccsc3)c(CC(=O)O)s2)cn1` [Preparation Example 596] the same measures were 1000 to 3000 nM and “B (A≧20>B≧10>C (minute))”.
With `CN(C)c1ncc(-c2nc(-c3ccc(Cl)s3)c(CC(=O)O)s2)cn1` [Preparation Example 600], the EC50 in test [1] was not above 500 nM. Also, the “100% inhibition time range” value in test [2] is “A (A≧20>B≧10>C (minute))”.
As to `CN(C)c1ncc(-c2nc(-c3ccc(Cl)cc3)c(CC(=O)O)s2)cn1` [Preparation Example 601], in test [1], the concentration giving a half-maximal response (EC50) lay in the range of 500 to 1000 nM. Besides, the “100% inhibition time range” value in test [2] was “A (A≧20>B≧10>C (minute))”.
`COc1ccc(-c2nc(CC(=O)O)c(-c3ccc(Cl)s3)s2)cc1` [Preparation Example 609]: in test [1], the concentration for a half-maximal effect (EC50) fell in the range of 500 to 1000 nM. In addition, the “100% inhibition time range” value in test [2] is recorded as “B (A≧20>B≧10>C (minute))”.
The like results for `O=C(O)Cc1nc(-c2cc3ccccc3s2)sc1-c1ccc(Cl)s1` [Preparation Example 610] were, in that order, not above 500 nM and “B (A≧20>B≧10>C (minute))”.
Take `Cc1cc(-c2nc(CC(=O)O)c(-c3ccc(Cl)s3)s2)sc1C` [Preparation Example 612]: the EC50 in test [1] was not above 500 nM. Also, the “100% inhibition time range” value in test [2] is on record as “A (A≧20>B≧10>C (minute))”.
For the molecule `CCNC(=O)Cc1nc(-c2ccc(F)cc2)oc1-c1ccsc1` [Preparation Example 616], the concentration for a half-maximal effect (EC50) in test [1] lay in the range of 1000 to 3000 nM. In addition, the “100% inhibition time range” value in test [2] is “B (A≧20>B≧10>C (minute))”.
For `O=C(O)/C=C/c1nc(-c2ccc(F)cc2)oc1-c1ccc(Cl)s1` [Preparation Example 626] the same measures were 1000 to 3000 nM and “C (A≧20>B≧10>C (minute))”.
Take `CCc1nc(-c2cccc(Cl)c2)[nH]c1-c1cccnc1` [Preparation example 13]: in test [1], the concentration giving a half-maximal response (EC50) is not above 500 nM. The “100% inhibition time range” value in test [2] is reported as “C (A≧20>B≧10>C (minute))”.
Consider `CCc1nc(-c2ccc(Cl)s2)[nH]c1-c1cccnc1` [Preparation example 14], for which the half-maximal effective concentration (EC50) in test [1] is 1000 to 3000 nM. Besides, the “100% inhibition time range” value in test [2] is given as “A (A≧20>B≧10>C (minute))”.
